Source: BindingDB's records for doi:10.1021/jm00073a015 (Institute, 1993)

Legend:
[1] = Binding affinity against delta opioid receptor from calf frontal cortex.
[2] = Binding affinity against kappa opioid receptor from calf frontal cortex.
[3] = biological target: Mu-type opioid receptor (Bos taurus, UniProt P79350); assay: ChEBML_136067
From the text: Binding affinity against mu opioid receptor from calf frontal cortex.

Mu-type opioid receptor, sequence (P79350 whole entry): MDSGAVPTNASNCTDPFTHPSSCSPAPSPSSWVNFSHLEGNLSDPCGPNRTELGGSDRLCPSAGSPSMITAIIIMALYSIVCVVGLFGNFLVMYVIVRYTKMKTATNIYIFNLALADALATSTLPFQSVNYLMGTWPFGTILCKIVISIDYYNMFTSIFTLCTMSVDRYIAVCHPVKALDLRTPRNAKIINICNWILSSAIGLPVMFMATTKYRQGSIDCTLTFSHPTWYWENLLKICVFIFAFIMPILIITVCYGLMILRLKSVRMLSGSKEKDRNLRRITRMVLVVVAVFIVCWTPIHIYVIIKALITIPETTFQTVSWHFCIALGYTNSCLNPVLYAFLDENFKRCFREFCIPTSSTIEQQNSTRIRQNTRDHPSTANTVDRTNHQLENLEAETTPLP

Structure (SMILES) | IC50 [1] | IC50 [2] | IC50 [3]
CN1CC[C@]23c4c5ccc(O)c4O[C@H]2C(=O)CC[C@@]3(NC(=O)/C=C/c2ccc([N+](=O)[O-])cc2)[C@H]1C5 | 3.5 nM | 6.6 nM | –
C[C@@]12Oc3c(O)ccc4c3C13CCN(CC1CC1)C(C4)[C@]3(NC(=O)CCc1ccc([N+](=O)[O-])cc1)CCC2=O (stereo partly drawn) [1N-[4-cyclopropylmethyl-10-hydroxy-13-methyl-14-oxo-(13R,17S)-12-oxa-4-azapentacyclo[9.6.1.01,13.05,17.07,18]octadeca-7(18),8,10-trien-17-yl]-3-(4-nitrophenyl)propanamide] | – | 162 nM | –
C[C@@]12Oc3c(O)ccc4c3C13CCN(CC1CC1)C(C4)[C@]3(NC(=O)/C=C/c1ccc([N+](=O)[O-])cc1)CCC2=O (stereo partly drawn) [1N-[4-cyclopropylmethyl-10-hydroxy-13-methyl-14-oxo-(13R,17S)-12-oxa-4-azapentacyclo[9.6.1.01,13.05,17.07,18]octadeca-7(18),8,10-trien-17-yl]-4-(4-nitrophenyl)-(Z)-2-butenamide] | 11 nM | 126 nM | –
O=C(C=Cc1ccc([N+](=O)[O-])cc1)N[C@@]12C=CC(=O)[C@@H]3Oc4c(O)ccc5c4C31CCN(CC1CC1)C2C5 (stereo partly drawn) [1N-[4-cyclopropylmethyl-10-hydroxy-14-oxo-(13R,17S)-12-oxa-4-azapentacyclo[9.6.1.01,13.05,17.07,18]octadeca-7(18),8,10,15-tetraen-17-yl]-4-(4-nitrophenyl)-(Z)-2-butenamide] | 106 nM | 11 nM | –
O=C(/C=C/c1ccc([N+](=O)[O-])cc1)N[C@@]12CCC(=O)[C@@H]3Oc4c(O)ccc5c4[C@@]31CCN(CC1CC1)[C@@H]2C5 [1N-[4-cyclopropylmethyl-10-hydroxy-14-oxo-(13R,17S)-12-oxa-4-azapentacyclo[9.6.1.01,13.05,17.07,18]octadeca-7(18),8,10-trien-17-yl]-4-(4-nitrophenyl)-(Z)-2-butenamide] | 21 nM | 12 nM | –
COc1ccc2c3c1O[C@H]1C(=O)C=C[C@@]4(NC(=O)C=Cc5ccc([N+](=O)[O-])cc5)C(C2)N(CC2CC2)CCC314 (stereo partly drawn) [1N-[4-cyclopropylmethyl-10-methoxy-14-oxo-(13R,17S)-12-oxa-4-azapentacyclo[9.6.1.01,13.05,17.07,18]octadeca-7(18),8,10,15-tetraen-17-yl]-4-(4-nitrophenyl)-(Z)-2-butenamide] | 54 nM | 5 nM | 1.5 nM
CN1CCC23c4c5ccc(O)c4O[C@@]2(C)C(=O)CC[C@@]3(NC(=O)/C=C/c2ccc([N+](=O)[O-])cc2)C1C5 (stereo partly drawn) [1N-[10-hydroxy-4,13-dimethyl-14-oxo-(13R,17S)-12-oxa-4-azapentacyclo[9.6.1.01,13.05,17.07,18]octadeca-7(18),8,10-trien-17-yl]-4-(4-nitrophenyl)-(Z)-2-butenamide] | 51 nM | 116 nM | –
COc1ccc2c3c1O[C@H]1C(=O)C=C[C@@]4(NC(=O)C=Cc5ccc([N+](=O)[O-])cc5)C(C2)N(C)CCC314 (stereo partly drawn) [1N-[10-methoxy-4-methyl-14-oxo-(13R,17S)-12-oxa-4-azapentacyclo[9.6.1.01,13.05,17.07,18]octadeca-7(18),8,10,15-tetraen-17-yl]-4-(4-nitrophenyl)-(Z)-2-butenamide] | 46 nM | 68 nM | –
